The values that follow come from patent publication EP0434750B1 (priority 1988, dated 1990).

The nature of data set [1]: Binding of MPTP to beef eye melanin (Scatchard analysis). The protocol: Melanin from beef eyes is prepared according to Potts, A.M., Ophthalmol. 3, 405 (1964). The pigment is finally suspended in distilled water to a concentration of 10 mg (by dry weight) per ml suspension.
The reaction mixtures are incubated at room temperature for one hour. Reference samples contain distilled water instead of melanin.
From the obtained data, the classes of binding sites, association constants and the binding capacity of the melanins are estimated according to Scatchard, G. et al., J. Am. Chem. Soc. 79, 12 (1957). As the molecular weight of melanin is unknown, the value for the number of binding sites is expressed as mol per mg melanin. The calculations are based on a melanin content of 2.5 mg per incubation.

A further data set deals with C57 black mice. The data set can be described thus: Striatal DA, DOPAC and HVA content in mice after MPTP. It is filed as in vivo. The protocol:
Male C57BL/6J IMR mice 6-8 weeks of age are used throughout except in one experiment (see below) in which CB6F1 [(BALB/cByJ IMR x C57BL/gJ IMR)F1] mice of a similar age are used. Mice are housed five per cage in plexiglass cages with free access to food and water in a colony room maintained at 23 ± 1°C. Fluorescent lighting in the room is automatically turned on at 06.00 hours and off at 18.00 hours.
All other studies are performed in C57 black mice.
The mouse striatum is obtained by placing the brain on its dorsal surface and making two coronal cuts; the first at the caudal end of the olfactory bulbs, the second at the level of the optic chiasma. After placing the resulting brain slice on its rostral surface, one horizontal cut is made just below the corpus callosum and another just above the anterior commissure. Remaining parietotemporal cortex is trimmed away using the external capsule as a landmark. Septal tissue lying between the caudate nuclei is removed by cutting along the tissue planes created by the frontal horns of the lateral ventricles. Striatal tissue thus isolated weighs approximately 20 mg per animal. Immediately after dissection, tissue is wrapped in aluminum foil and stored in liquid nitrogen until assay, with the exception of tissue for uptake studies which is used immediately.
The striatum is weighed, placed in a tube containing 1 ml of 0.4 normal perchloric acid, then homogenized with a Beckman polytron at a setting of 5 for 10 seconds. The homogenate is centrifuged at approximately 20,000 x g for 15 minutes. Concentrations of dopamine (DA), DOPAC and HVA in the supernatant are determined by reverse-phase liquid chromatography coupled with electrochemical detection according to the method of Mayer, G.S. et al., J. Chromatogr. 255, 533 (1983), with minor modifications. The mobile phase is prepared by mixing 965 ml of 0.15 M monochloroacetic acid with 35 ml of acetonitrile and adding 193 mg of sodium octyl sulfate. This solution is filtered and degassed and then 18 ml of tetrahydrofuran are added. Using this mobile phase at a flow rate of 1.3 ml/min, DA, DOPAC and HVA are resolved using a 4.6 mm x 25 cm C-18, 5 µ column (Brownless Labs). Detection and quantitation are performed using a dual series electrode detector (Coulochem Model 5100, Environmental Systems Associates, Wiggins, Mass.). Electrode potentials are set at +0.4 V (electrode 1) and -0.3 V (electrode 2). The response on electrode 2 is monitored (10 mV strip chart recorder) and used for quantitation relative to peak heights of known amounts of standards.

The mark [2] stands for this setting: one week after MPTP 20 mg/kg/h x 4.
The mark [3] stands for this setting: three months after MPTP 20 mg/kg/h x 4.

Regarding `CN1CC=C(c2ccccc2)CC1` [MPTP, 1-Methyl-4-phenyl-1,2,5,6-tetrahydropyridine], the “association constant K1” value in data set [1] (MPTP 5.7 µM - […], room temperature, one hour, first class of binding sites, 60 min) is “K1 = 2.32 x 10^5 M^-1”. In data set [1] (beef eye melanin), the “total binding capacity (Σn)” value is recorded as 0.53 µmol/mg melanin. Also, the “number of binding sites n1” value in data set [1] (first class of binding sites) is on record as “n1 = 0.09 µ mole per mg melanin”. Further, the “number of binding sites n2” value in data set [1] (second class of binding sites) is “n2 = 0.44 µ mole per mg melanin”. In addition, the “association constant K2” value in data set [1] (second class of binding sites, 60 min) was “K2 = 1.22 x 10^3 M^-1”. The “striatal DA level, % of control” value in the data set with C57 black mice (15 months after MPTP 20 mg/kg/h x 4) was 69 % of control; with C57 black mice (setting [2]), 28 % of control. Also, the “striatal concentration of DOPAC” value with C57 black mice (MPTP 20 mg/kg/h x 4, control 0.96 (±0.14)) is 0.28 (±0.02) µg/g. In addition, the “striatal concentration of HVA” value in the data set on C57 black mice (MPTP 20 mg/kg/h x 4, control 1.38 (±0.05)) is 0.60 (±0.06) µg/g. Further, the “DA” value in the data set with C57 black mice (mouse striatum one week after MPTP 20 mg/kg/h x 4 i.p.) was 2.8 ± 0.5 µg/g; in the data set with C57 black mice (mouse striatum one week after MPTP 30 mg/kg/day x 10 i.p.), 3.5 ± 0.3 µg/g. In addition, the “% Depletion of striatal DA” value is given as 74% in the data set on C57 black mice (setting [2]) and 67% with C57 black mice (one week after MPTP 30 mg/kg/day x 10). The “HVA, % of control” value in the data set on C57 black mice (setting [2]) is 43 % of control; in the data set on C57 black mice (setting [3]), 80 % of control. Further, in the data set on C57 black mice (setting [3]), the “depletion of striated DA” value was determined as 34%. In the data set on C57 black mice (three months after MPTP, control 1.36 ± 0.11), this compound came in with an HVA of 1.09 ± 0.04 µg/g. The same compound gave a DOPAC in the data set with C57 black mice (three months after MPTP, controls 1.53 ±0.09 µg/g) of 1.03 ± 0.03 µg\g.
